Results: the supplement of paper PMC13380429

Columns and labels:
U2OS [1] = experiment: cell viability relative to DMSO; higher = less toxic; conditions: 72 h
Vero E6 [2] = experiment: as above; conditions: 72 h
Calu-3 [3] = experiment: as above; conditions: 72 h
Caco-2 [4] = experiment: as above; conditions: 72 h
HepG2 [5] = experiment: as above; conditions: 72 h
U2OS [6] = experiment: drug sensitivity score (DSS) for viability; higher = more toxic; extreme values may be limits of the assay; conditions: 72 h
Vero E6 [7] = experiment: as above; conditions: 72 h
Calu-3 [8] = experiment: as above; conditions: 72 h
Caco-2 [9] = experiment: as above; conditions: 72 h
HepG2 [10] = experiment: as above; conditions: 72 h
U2OS [11] = experiment: relative viability EC50 (midpoint between 100% and the lowest measured viability); higher = less toxic; conditions: 72 h
Vero E6 [12] = experiment: as above; conditions: 72 h
Calu-3 [13] = experiment: as above; conditions: 72 h
Caco-2 [14] = experiment: as above; conditions: 72 h
HepG2 [15] = experiment: as above; conditions: 72 h
[16] = tested on: A549-ACE2 infected with SARS-CoV-2; experiment: morphology score (similarity to uninfected cells); higher = more like uninfected cells; conditions: 24 h
[17] = tested on: A549-ACE2 infected with SARS-CoV-2; experiment: cell count relative to DMSO; higher = less toxic; conditions: 24 h
A549-ACE2 = experiment: drug-induced phospholipidosis relative to tamoxifen; higher = more phospholipidosis
[18] = tested on: A549-ACE2 infected with SARS-CoV-2; experiment: SARS-CoV-2 infection rate relative to DMSO; higher = more infection; conditions: 24 h

NC(=O)N1C(=O)/C(=C(\O)c2cccs2)c2cc(Cl)ccc21 [tenidap]
cell viability [%]
Conditions | Caco-2 [4] | Calu-3 [3] | HepG2 [5] | U2OS [1] | Vero E6 [2]
1 nM | 98.3 | 109 | 98.4 | 99.6 | 102
10 nM | 94.6 | 97 | 110 | 98.3 | 103
100 nM | 97.1 | 85.4 | 98.8 | 93.3 | 94.6
1000 nM | 94 | 108 | 106 | 102 | 93.1
10000 nM | 91.6 | 99.9 | 99.9 | 99 | 99

Conditions | drug sensitivity score | relative viability EC50 [µM]
Caco-2 [9] | 0 | –
Caco-2 [14] | – | > 10
Calu-3 [8] | 0 | –
Calu-3 [13] | – | > 10
HepG2 [10] | 0 | –
HepG2 [15] | – | > 10
U2OS [6] | 0 | –
U2OS [11] | – | > 10
Vero E6 [7] | 0 | –
Vero E6 [12] | – | > 10

O=C(O)C1CSCN1 (stereo not drawn) [timonacic]
cell viability [%]
Conditions | Caco-2 [4] | Calu-3 [3] | HepG2 [5] | U2OS [1] | Vero E6 [2]
1 nM | 101 | 115 | 94.4 | 103 | 97
10 nM | 102 | 94.9 | 98.7 | 98.2 | 99.6
100 nM | 96.4 | 94.6 | 88.1 | 99.5 | 97.6
1000 nM | 88.3 | 109 | 98.4 | 98.8 | 98.9
10000 nM | 102 | 104 | 97.9 | 102 | 94.1

Conditions | drug sensitivity score | relative viability EC50 [µM]
Caco-2 [9] | 0 | –
Caco-2 [14] | – | > 10
Calu-3 [8] | 0 | –
Calu-3 [13] | – | > 10
HepG2 [10] | 0 | –
HepG2 [15] | – | > 10
U2OS [6] | 0 | –
U2OS [11] | – | > 10
Vero E6 [7] | 0 | –
Vero E6 [12] | – | > 10

CCOC(=O)NNc1nncc2ccccc12 [todralazine]
cell viability [%]
Conditions | Caco-2 [4] | Calu-3 [3] | HepG2 [5] | U2OS [1] | Vero E6 [2]
1 nM | 90.4 | 84.4 | 79.3 | 98.6 | 101
10 nM | 111 | 109 | 97.3 | 100 | 88.3
100 nM | 84.2 | 101 | 125 | 97.1 | 97.3
1000 nM | 94.4 | 110 | 112 | 102 | 91.5
10000 nM | 117 | 103 | 97.3 | 105 | 99.4

Conditions | drug sensitivity score | relative viability EC50 [µM]
Caco-2 [9] | 0 | –
Caco-2 [14] | – | > 10
Calu-3 [8] | 0 | –
Calu-3 [13] | – | > 10
HepG2 [10] | 0 | –
HepG2 [15] | – | > 10
U2OS [6] | 0 | –
U2OS [11] | – | > 10
Vero E6 [7] | 0 | –
Vero E6 [12] | – | > 10

CC[C@@]1(O)C(=O)OCc2c1cc1n(c2=O)Cc2cc3c(CN(C)C)c(O)ccc3nc2-1 [topotecan]
cell viability [%]
Conditions | Caco-2 [4] | Calu-3 [3] | HepG2 [5] | U2OS [1] | Vero E6 [2]
1 nM | 97.7 | 111 | 110 | 101 | 102
10 nM | 92.8 | 102 | 70.3 | 107 | 97.3
100 nM | 83.3 | 77.3 | 48.6 | 97.9 | 95.1
1000 nM | 58.6 | 47.2 | 18.8 | 60.6 | 65.1
10000 nM | 16.2 | 20.1 | 1.4 | 5.9 | 39.8

Conditions | drug sensitivity score | relative viability EC50 [µM]
Caco-2 [9] | 10.4 | –
Caco-2 [14] | – | 0.748
Calu-3 [8] | 12.6 | –
Calu-3 [13] | – | 0.38
HepG2 [10] | 23.6 | –
HepG2 [15] | – | 0.0757
U2OS [6] | 10.2 | –
U2OS [11] | – | 1.16
Vero E6 [7] | 7.5 | –
Vero E6 [12] | – | 0.756

COc1cc2ncnc(Nc3cccc(Cl)c3)c2cc1OC [tyrphostin-AG-1478]
Conditions | SARS-CoV-2 infection rate, [18] [%] | cell count, [17] [%] | cell viability, Caco-2 [4] [%] | cell viability, Calu-3 [3] [%] | cell viability, HepG2 [5] [%] | cell viability, U2OS [1] [%] | cell viability, Vero E6 [2] [%] | morphology score, [16]
1 nM | – | – | 102 | 107 | 99.7 | 103 | 98.6 | –
10 nM | – | – | 88.6 | 103 | 85.3 | 96.1 | 100 | –
100 nM | – | – | 97.4 | 93.6 | 101 | 96.2 | 84.9 | –
0.3 µM | 101 | 97 | – | – | – | – | – | -0.07
1000 nM | – | – | 80.5 | 45.1 | 100 | 92.7 | 64.3 | –
3 µM | 91 | 102 | – | – | – | – | – | 0.32
10000 nM | – | – | 72.4 | 31.3 | 67.3 | 87.7 | 48.2 | –
10 µM | 57 | 106 | – | – | – | – | – | 0.52
30 µM | 19 | 69 | – | – | – | – | – | 0.35

drug-induced phospholipidosis [%], A549-ACE2
Conditions | 0.3 µM | 0.833333 µM | 3.33333 µM | 6.66667 µM | 10 µM | 30 µM
24 h | 3.78 | 0.06 | -0.97 | 3.23 | 3.9 | 3.18
48 h | 3.39 | -0.45 | -0.89 | -0.86 | 1.84 | -2.59
72 h | 0.893 | -2.52 | -3.56 | -0.746 | 0.696 | -0.954

Conditions | drug sensitivity score | relative viability EC50 [µM]
Caco-2 [9] | 3.1 | –
Calu-3 [8] | 11.1 | –
Calu-3 [13] | – | 0.422
HepG2 [10] | 1.5 | –
U2OS [6] | 0.1 | –
U2OS [11] | – | > 10
Vero E6 [7] | 8.2 | –
Vero E6 [12] | – | 0.335

CC(C)(Sc1ccncc1-c1ccc(C#N)c2ccccc12)C(=O)O [verinurad]
cell viability [%]
Conditions | Caco-2 [4] | Calu-3 [3] | HepG2 [5] | U2OS [1] | Vero E6 [2]
1 nM | 97.6 | 106 | 103 | 103 | 95.3
10 nM | 93.2 | 93.7 | 99.8 | 99.5 | 101
100 nM | 101 | 90.9 | 93.3 | 96.8 | 91.9
1000 nM | 95 | 113 | 105 | 99.8 | 99.4
10000 nM | 101 | 96.8 | 122 | 103 | 106

Conditions | drug sensitivity score | relative viability EC50 [µM]
Caco-2 [9] | 0 | –
Caco-2 [14] | – | > 10
Calu-3 [8] | 0 | –
Calu-3 [13] | – | > 10
HepG2 [10] | 0 | –
HepG2 [15] | – | > 10
U2OS [6] | 0 | –
U2OS [11] | – | > 10
Vero E6 [7] | 0 | –
Vero E6 [12] | – | > 10

O=c1ncccn1[C@@H]1O[C@H](CO)[C@@H](O)[C@H]1O [zebularine]
cell viability [%]
Conditions | Caco-2 [4] | Calu-3 [3] | HepG2 [5] | U2OS [1] | Vero E6 [2]
1 nM | 103 | 94.4 | 113 | 97.8 | 99.6
10 nM | 102 | 102 | 97.5 | 99.2 | 99.1
100 nM | 104 | 85.9 | 111 | 96.8 | 102
1000 nM | 97.9 | 96.7 | 101 | 101 | 97.9
10000 nM | 101 | 84.4 | 103 | 92.6 | 99.1

Conditions | drug sensitivity score | relative viability EC50 [µM]
Caco-2 [9] | 0 | –
Caco-2 [14] | – | > 10
Calu-3 [8] | 0.3 | –
Calu-3 [13] | – | > 10
HepG2 [10] | 0 | –
HepG2 [15] | – | > 10
U2OS [6] | 0 | –
U2OS [11] | – | > 10
Vero E6 [7] | 0 | –
Vero E6 [12] | – | > 10
